Laboratory results reported in patent publication US20050181516A1, “Bioequivalence determination using expression profiling” (priority 2002, published 2005).
Entries after “also recorded” stand apart in the source; their conditions may differ.

System: gene expression (mRNA) in peripheral blood (lymphocytes)
Assay: Gene expression profiling (Affymetrix DNA microarrays) of blood samples of psoriatic patients before and after oral ASM981
Assay type: in vivo, human
Details: for Mean fold variation: day 13/14 vs baseline
Experimental: The dose used was 60 mg/day, given as 30 mg twice a day (b.i.d.). To make this dose the […] tablets were cut in half using a special cutter (Tablettenteiler NR.96) so as to obtain 30 mg of ASM981 or a matched amount of placebo.
ASM981 was evaluated as treatment for psoriasis using an oral dose of 60 mg (30 mg b.i.d) during a 4 weeks clinical study. The oral formulation used was a highly standardized oral dosage form that could be produced in large amounts and with a highly uniform composition, this was oral formulation A.
The cohort included 10 patients; 8 received oral formulation A and 2 received a placebo. Blood samples were collected before the first administration to establish the gene expression baseline and on days 13 or 14 after treatment with ASM981 or placebo and submitted to gene expression analysis in order to gain insights into the mechanisms of action of the compound.
The RNA from each of the blood samples was extracted and tested on individual DNA microarrays, thus allowing, for each patient, a comparison of gene expression before and after ASM981 treatment. […] Genes that were consistently modulated, i.e., change greater then a factor of two, were sorted in functional categories. Table 4 lists all the identified genes with their symbol, Unigene cluster number, protein accession number and the GenBank accession number for the sequence used to design the Affymetrix probes.
The extraction of the RNA from the samples, the preparation of the target, the hybridization and the analysis of the arrays, were performed according to the methods and protocols recommended by Affymetrix. Total RNA was extracted from the blood samples (lymphocytes) collected on days 0 and 14 using TRIZOL™ (Life Technologies), and purified through RNEASY™ columns (Qiagen) as needed. Good quality total RNA ([…]) was used to synthesize double-stranded cDNA using the SUPERSCRIPT CHOICE SYSTEM™ (Life Technologies). The cDNA was then in vitro transcribed (MEGASCRIPT™ T7 Kit, Ambion) to form biotin-labeled cRNA. The quality of the cRNA was checked on a test array according to the recommendation of Affymetrix. Next, […] of labeled cRNA were hybridized to the probe arrays for 16 hours at 45° C. Arrays were then washed according to the EukGE-WS2 protocol (Affymetrix), and stained with […] of streptavidin-phycoerythrin conjugate (Molecular Probes). The signal was antibody amplified with 2 mg/mL acetylated BSA (Life Technologies), 100 mM MES, 1 M [Na+], 0.05% Tween 20, 0.005% Antiofoam (Sigma), 0.1 mg/mL goat IgG and 0.5 mg/mL biotinylated antibody and re-stained with the streptavidin solution. After washing, the arrays were scanned twice with the GENE ARRAY® scanner (Affymetrix).
The data were analyzed comparing, for each individual patient, the gene expression levels before and after treatment. Only genes that were consistently modulated in at least 5 patients were considered as relevant. These variations were also compared with the gene expression changes observed in the placebo treated patients. During analysis, one chip (patient 44 before treatment) appeared to have very few correctly hybridized genes, and to introduce a bias into the analysis. This pair was excluded to establish average fold change.

SMILES: CC[C@@H]1/C=C(\C)C[C@H](C)C[C@H](OC)[C@H]2O[C@@](O)(C(=O)C(=O)N3CCCC[C@H]3C(=O)O[C@H](/C(C)=C/[C@@H]3CC[C@H](Cl)[C@H](OC)C3)[C@H](C)[C@@H](O)CC1=O)[C@H](C)C[C@@H]2OC [ASM981, 33-Epichloro-33-desoxy-ascomycin]
- Mean fold variation (4-1BB ligand (TNFSF9) mRNA, blood): +2.3 fold
- Mean fold variation (ADP/ATP translocase (SLC25A6) mRNA, blood): −3.7 fold
- Mean fold variation (ALu RNA binding protein (SRP14) mRNA, blood): −2.9 fold
- Mean fold variation (B7 protein (B7) mRNA, blood): +2.9 fold
- Mean fold variation (BAP 31 (DXS1357E) mRNA, blood): −9.2 fold
- Mean fold variation (BRCA2 (gene symbol ARPC2) mRNA, blood): −6.5 fold
- Mean fold variation (Butyrophilin BTF5 (BTN3A1) mRNA, blood): −10.6 fold
- Mean fold variation (CAMLG (calcium modulating cyclophilin ligand) mRNA, blood): −5.2 fold
- Mean fold variation (CAPL/S100A4 mRNA, blood): −37.8 fold
- Mean fold variation (CDC10 homologue (CDC10) mRNA, blood): −6 fold
- Mean fold variation (COX6B mRNA, blood): −13.6 fold
- Mean fold variation (CSF-1 (CSF1) mRNA, blood): +3.1 fold
- Mean fold variation (Calmodulin (CALM2) mRNA, blood): −28.8 fold
- Mean fold variation (Clone × 101 (MAP1A) mRNA, blood): +2.2 fold
- Mean fold variation (Cyclin D2 (CCND2) mRNA, blood): −16.6 fold
- Mean fold variation (Cyclin D3 (CCND3) mRNA, blood): −7.2 fold
- Mean fold variation (Cystatin A (CSTA) mRNA, blood): −2.4 fold
- Mean fold variation (Cystatin C (CST3) mRNA, blood): −25 fold
- Mean fold variation (Cytochrome c oxidase subunit IV (COX4) mRNA, blood): −15.8 fold
- Mean fold variation (Cytochrome c oxidase subunit VIc (COX6C) mRNA, blood): −21.1 fold
- Mean fold variation (DARC (FY) mRNA, blood): +7 fold
- Mean fold variation (EF-1, Elongation factor 1 delta (EEF1D) mRNA, blood): −12.4 fold
- Mean fold variation (Epididymal secretory protein mRNA, blood): −19.6 fold
- Mean fold variation (FC-epsilon binding protein Galectin 3 (LGALS3) mRNA, blood): −21 fold
- Mean fold variation (Farnesyl transferase (FNTA) mRNA, blood): −9 fold
- Mean fold variation (Ferritin (FTL) mRNA, blood): −4.4 fold
- Mean fold variation (G gamma 11 (GNG11) mRNA, blood): −6.2 fold
- Mean fold variation (GPR-9 CCR9 mRNA, blood): +3.4 fold
- Mean fold variation (Gamma actin (ACTG1) mRNA, blood): −3.4 fold
- Mean fold variation (Glutamine synthase (GLUL) mRNA, blood): −2.6 fold
- Mean fold variation (Glutathione peroxidase mRNA, blood): −5.4 fold
- Mean fold variation (HLA-DR (HLA-DRA) mRNA, blood): −3.2 fold
- Mean fold variation (HLA-E mRNA, first of 2 sequences, blood): −23.4 fold
- Mean fold variation (HLA-E mRNA, second of 2 sequences, blood): −4.2 fold
- Mean fold variation (HLA-F mRNA, blood): −10.2 fold
- Mean fold variation (HLA-I A 26 (HLA-A) mRNA, blood): −4.1 fold
- Mean fold variation (HLA-I C (HLA-C) mRNA, blood): −2.9 fold
- Mean fold variation (HLH G0S8 (RGS2) mRNA, blood): −10.8 fold
- Mean fold variation (HMG-17 (HMG17) mRNA, blood): −15.5 fold
- Mean fold variation (Histone H2 (H2AFL) mRNA, blood): −42.6 fold
- Mean fold variation (Histone H3.3 (H3F3A) mRNA, blood): −6.6 fold
- Mean fold variation (Ii Invariant chain, CD74 mRNA, blood): −46.4 fold
- Mean fold variation (KIAA0 151 (IKKE) mRNA, blood): +2.5 fold
- Mean fold variation (KIAA0055 (USP8) mRNA, blood): +3.7 fold
- Mean fold variation (Kallistatin mRNA, blood): +3.3 fold
- Mean fold variation (L-selectin (SELL) mRNA, blood): −46.6 fold
- Mean fold variation (LAMP-1 (LAMP1) mRNA, blood): −19.1 fold
- Mean fold variation (LAPT5 Lysosomal associated protein (LAPTM5) mRNA, blood): −12.5 fold
- Mean fold variation (LFA1a (ITGAL) mRNA, blood): −16.1 fold
- Mean fold variation (LFA1b (ITGB2) mRNA, blood): −8.3 fold
- Mean fold variation (Lactate dehydrogenase (LDHB) mRNA, blood): −17.1 fold
- Mean fold variation (Laminin receptor (LAMR1) mRNA, blood): −7.3 fold
- Mean fold variation (Leukotriene A4 hydrolase (LTA4H) mRNA, blood): −8 fold
- Mean fold variation (Lone HH109 mRNA, blood): +2 fold
- Mean fold variation (MIC-2 CD99 (MIC2) mRNA, blood): −65 fold
- Mean fold variation (MTf1 Mitochondrial transcription factor (TFAM) mRNA, blood): +3.2 fold
- Mean fold variation (Macrophilin 12 FKBP (FKBP1A) mRNA, blood): −66.2 fold
- Mean fold variation (Mitochondrial ubiquinone binding protein (first entry, M26730) mRNA, blood): −5.4 fold
- Mean fold variation (Mitochondrial ubiquinone binding protein (second entry of Table 11) mRNA, blood): +6.6 fold
- Mean fold variation (Myosin light chain non muscle type mRNA, blood): −15.6 fold
- Mean fold variation (Myosin regulatory light chain (MLCB) mRNA, blood): −8.5 fold
- Mean fold variation (NRGN Neuragranin mRNA, blood): −3.1 fold
- Mean fold variation (Neutrophil cytochrome b light chain (CYBA) mRNA, blood): −34.7 fold
- Mean fold variation (Non muscle-type cofilin (CFL1) mRNA, blood): −2.9 fold
- Mean fold variation (Nuclear factor Nf-IL6 (CEBPB) mRNA, blood): −6.8 fold
- Mean fold variation (Nucleosome assembly protein (NAP1L1) mRNA, blood): −7.7 fold
- Mean fold variation (PF-4 (PF4V1) mRNA, blood): −5.2 fold
- Mean fold variation (Platelet glycoprotein IIb (ITGA2B) mRNA, blood): −5.2 fold
- Mean fold variation (Platelet glycoprotein Ib mRNA, blood): −26.6 fold
- Mean fold variation (Prosaposin (PSAP) mRNA, blood): −56.1 fold
- Mean fold variation (Prostaglandin endoperoxide synthase 1 (PTGS1) mRNA, blood): −45.9 fold
- Mean fold variation (Proteoglycan core protein (PRG1) mRNA, blood): +49 fold
- Mean fold variation (Prothymosin alpha (PTMA) mRNA, blood): −71.7 fold
- Mean fold variation (Pyrroline5 carboxylate reductase (PYCR1) mRNA, blood): +34 fold
- Mean fold variation (RANTES (SCYA5) mRNA, blood): −5.3 fold
- Mean fold variation (RSU (RSU1) mRNA, blood): −7.2 fold
- Mean fold variation (Ribosomal protein L 12 (RPL12) mRNA, blood): −4.8 fold
- Mean fold variation (Ribosomal protein S 7 (RPS7) mRNA, blood): −6.4 fold
- Mean fold variation (SABP1 (elk4) (ELK4) mRNA, blood): +6.4 fold
- Mean fold variation (Scaffold attachment protein (HNRPU) mRNA, blood): −7.1 fold
- Mean fold variation (Selectin P ligand SELPLG mRNA, blood): −17.1 fold
- Mean fold variation (Serine Threonine phosphatase (PPP2R1B) mRNA, blood): +5.1 fold
- Mean fold variation (Single stranded DNA binding (SSBP) mRNA, blood): −8.5 fold
- Mean fold variation (Small nuclear ribonucleoprotein (SNRPN) mRNA, blood): −2 fold
- Mean fold variation (TAX REB 67 (ATF4) mRNA, blood): −22.6 fold
- Mean fold variation (TF lia transcription factor mRNA, blood): −16.4 fold
- Mean fold variation (TRMP2 Apolipoprotein J mRNA, blood): −6.8 fold
- Mean fold variation (Taurine transporter (SLC6A6) mRNA, blood): +4.4 fold
- Mean fold variation (Thioredoxin binding protein/Vit. D3 Up regulated protein (VDUP1) mRNA, blood): −5.4 fold
- Mean fold variation (Thromboxane A2 receptor (TBXA2R) mRNA, blood): −9.3 fold
- Mean fold variation (Thymosin beta (TMSB10) mRNA, blood): −7.5 fold
- Mean fold variation (Transaldolase mRNA, blood): −3.1 fold
- Mean fold variation (Translationally controlled tumor protein (TPT1) mRNA, blood): −3.2 fold
- Mean fold variation (Tyrosine phosphatase (huPP1) (PTP4A2) mRNA, blood): −5.7 fold
- Mean fold variation (Ubiquitin like protein (UBL4) mRNA, blood): −21.5 fold
- Mean fold variation (Vacuolar H + ATPase (ATP6N1A) mRNA, blood): +1.8 fold
- Mean fold variation (Vimentin (VIM) mRNA, blood): −7 fold
- Mean fold variation (Wilms tumor related protein mRNA, blood): −4 fold
- Mean fold variation (Zinc finger protein ZNF141 mRNA, blood): +3.2 fold
- CD8+ T lymphocytes in the blood (after treatment): slightly more represented
- proportion of T cell expressing CD3 in the blood (after treatment): does not affect
- expression of genes of the Macrolactam target pathway (Macrophilin 12), cellular activation and proliferation (Histone2, Histone 3.3, cyclin D2) (among blood cells): down regulate
- FKBP12 at the level of RNA synthesis (blood): strongly down regulated
- Kallistatin expression (blood): up-regulated
- expression of inflammatory mediators (Leukotriene A4 hydrolase, Prostaglandin endoperoxide synthase) (blood cells): strongly down regulate
- genes involved in asthma physiopathology (RANTES, GALECTIN-3, Thromboxane A2 receptor) (blood cells): markedly down regulated
- genes necessary for chemotaxis and cellular migration, including LFA-1, P-Selectin ligand and L-Selectin (blood cells): dramatic down regulation
- CD3 expression level (blood, after treatment): unchanged
- granzyme A and B expression (blood, after treatment): increase
- genes involved in any known adverse side effect or toxicity pathway (expression profile, blood): no consistent pattern of alteration; also recorded: No gene linked to a possible adverse effect or to a toxicity pathway was found to be regulated
- toxic effect in the expression profile (expression profile, blood): No obvious toxic effect
- Mean fold variation (pM5 (PM5) mRNA, blood): −5.7 fold
